Assay results taken from patent publication US9402819B2, “Anti-HIV compound and preparation method and use thereof” (Sichuan University, priority 2012, dated 2016).
In brackets after ≈: the same amount, converted by molar mass.

Assays:
HIV-1IIIB [1] = experiment: Anti-HIV activity in C8166 cells; assay type: cell-based; conditions: for TI: CC50/EC50
Method: (§1) The anti-HIV activity was determined by the “Guiding Principles of Anti HIV Drug Unclinical Pharmacodynamics” of SFDA which is tested by technology standard assay according to International Universal Standards and Methods. Where in CC50, EC50 were measured twice and took the average.

[2] = Cytotoxicity (CC50) in H9 cells; assay type: cell-based, human; conditions: human
Method: as §1

HIV-1IIIB [3] = experiment: Anti-HIV activity in H9 cells; assay type: cell-based; conditions: for TI: CC50/EC50
Method: as §1

[4] = Cytotoxicity (CC50) in C8166 cells; assay type: cell-based; conditions: human
Method: as §1

[5] = Human immunodeficiency virus 1, HIV-1IIIB, C8166 cells, read-out: EC50
[6] = Human immunodeficiency virus 1, HIV-1IIIB, H9 cells, read-out: EC50

| EC50 (HIV-1IIIB [1]; [5]) | EC50 (HIV-1IIIB [3]; [6]) | SMILES | CC50 ([2]; H9 cells, read-out: CC50) | CC50 [4] | TI (HIV-1IIIB [3]; H9 cells) | TI (HIV-1IIIB [1]; C8166 cells) | CC50 [2] | EC50 (HIV-1IIIB [1]; Human immunodeficiency virus 1, C8166) | EC50 (HIV-1IIIB [3]; Human immunodeficiency virus 1, H9) |
| --- | --- | --- | --- | --- | --- | --- | --- | --- | --- |
| > 200 µg/mL | > 200 µg/mL | COc1ccccc1NC(=O)c1c(N)cccc1S(=O)(=O)c1cc(C)cc(C)c1 [Compound 75, 2-amino-6-((3,5-dimethylphenyl)sulfonyl)-N-(2-methoxyphenyl)benzamide] | > 200 µg/mL | > 200 µg/mL |  |  |  |  |  |
|  |  | COc1ccccc1NC(=O)c1c(NCC(N)=O)cccc1Sc1ccc([N+](=O)[O-])cc1 [Compound 82, 2-((2-amino-2-oxoethyl)amino)-N-(2-methoxyphenyl)-6-((4-nitrophenyl)thio)benzamide] | > 200 µg/mL | > 200 µg/mL |  |  |  |  |  |
| 24.5 µg/mL (≈ 45.7 µM) | 137 µg/mL (≈ 256 µM) | COc1ccccc1NC(=O)c1c(NS(=O)(=O)c2ccccc2)cccc1Sc1ccc([N+](=O)[O-])cc1 [Compound 56, N-(2-methoxyphenyl)-2-(4-nitrophenylthio)-6-(phenylsulfonamido)benzamide] | > 200 µg/mL | > 200 µg/mL | >1.46 | >8.17 |  |  |  |
|  |  | Nc1cccc(S(=O)(=O)c2ccc([N+](=O)[O-])cc2)c1C(=O)Nc1ccccc1I [Compound 72, 2-amino-N-(2-iodophenyl)-6-((4-nitrophenyl)sulfonyl)benzamide] | > 200 µg/mL | > 200 µg/mL |  |  |  |  |  |
|  |  | COc1ccccc1NC(=O)c1c(NCP(=O)(OC(C)C)OC(C)C)cccc1Sc1ccc([N+](=O)[O-])cc1 [Compound 65, diisopropyl(((2-((2-methoxyphenyl)carbamoyl)-3-((4-nitro-phenyl)thio)phenyl)amino)methyl)phosphonate] | 25.4 µg/mL (≈ 44.3 µM) | 18.8 µg/mL (≈ 32.8 µM) |  |  |  |  |  |
| 89.1 µg/mL (≈ 189 µM) | 102 µg/mL (≈ 216 µM) | COc1ccccc1NC(=O)c1c(NCCO)cccc1S(=O)(=O)c1ccc([N+](=O)[O-])cc1 [Compound 81, 2-((2-hydroxyethyl)amino)-N-(2-methoxyphenyl)-6-((4-nitrophenyl)sulfonyl)benzamide] | 72.7 µg/mL (≈ 154 µM) | 102 µg/mL (≈ 217 µM) | 0.71 | 1.15 |  |  |  |
| 93.5 µg/mL (≈ 199 µM) | 101 µg/mL (≈ 214 µM) | COc1ccccc1NC(=O)c1c(NCCN)cccc1S(=O)(=O)c1ccc([N+](=O)[O-])cc1 [Compound 79, 2-((2-aminoethyl)amino)-N-(2-methoxyphenyl)-6-((4-nitrophenyl)sulfonyl)benzamide] | 99.5 µg/mL (≈ 211 µM) | 90.9 µg/mL (≈ 193 µM) | 0.99 | 0.97 |  |  |  |
|  | 28.3 µg/mL (≈ 68.9 µM) | COc1cc(N)ccc1NC(=O)c1c(N)cccc1Sc1ccc([N+](=O)[O-])cc1 [Compound 50, 2-amino-N-(4-amino-2-methoxyphenyl)-6-(4-nitrophenylthio)benzamide] | 81.1 µg/mL (≈ 197 µM) |  | 2.87 |  |  |  |  |
|  |  | COc1ccccc1NC(=O)c1c(N)cccc1S(=O)(=O)c1ccc(C(=O)O)cc1 [Compound 77, 4-((3-amino-2-((2-methoxyphenyl)carbamoyl)phenyl)sulfonyl)benzoic acid] | > 200 µg/mL | > 200 µg/mL |  |  |  |  |  |
|  |  | COc1ccccc1NC(=O)c1c(N(C)C)cccc1S(=O)(=O)c1ccc([N+](=O)[O-])cc1 [Compound 58, 2-(dimethylamino)-N-(2-methoxyphenyl)-6-((4-nitrophenyl)sulfonyl)benzamide] | > 200 µg/mL | > 200 µg/mL |  |  |  |  |  |
|  | 41.5 µg/mL (≈ 109 µM) | Nc1cccc(NC(=O)c2c(N)cccc2Sc2ccc([N+](=O)[O-])cc2)c1 [Compound 49, 2-amino-N-(3-aminophenyl)-6-(4-nitroph-enylthio)benzamide] | > 200 µg/mL |  | 4.82 |  |  |  |  |
| 3.43 µg/mL (≈ 7.38 µM) | 3.83 µg/mL (≈ 8.24 µM) | COc1ccccc1NC(=O)c1c(Sc2ccc([N+](=O)[O-])cc2)cccc1N1CCNCC1 [Compound 62, N-(2-methoxyphenyl)-2-((4-nitrophenyl)thio)-6-(piperazinyl)benzamide] | 14.2 µg/mL (≈ 30.6 µM) | 10.2 µg/mL (≈ 22.1 µM) | 3.71 | 2.99 |  |  |  |
|  |  | CNc1cccc(S(=O)(=O)c2ccc([N+](=O)[O-])cc2)c1C(=O)Nc1ccccc1OC [Compound 59, N-(2-methoxyphenyl)-2-(methylamino)-6-((4-nitrophenyl)sulfonyl)benzamide] |  | > 200 µg/mL |  |  |  |  |  |
|  |  | COc1ccccc1NC(=O)c1c(NS(=O)(=O)c2ccccc2)cccc1S(=O)(=O)c1ccc([N+](=O)[O-])cc1 [Compound 61, N-(2-methoxyphenyl)-2-((4-nitrophenyl)sulfonyl)-6-(phenylsulfonamido)benzamide] | > 200 µg/mL | > 200 µg/mL |  |  |  |  |  |
|  |  | Nc1cccc(Sc2ccc([N+](=O)[O-])cc2)c1C(=O)Nc1ccccc1I [Compound 71, 2-amino-N-(2-iodophenyl)-6-((4-nitrophenyl)thio)benzamide] | > 200 µg/mL | > 200 µg/mL |  |  |  |  |  |
|  | 18.8 µg/mL (≈ 44.3 µM) | COc1ccc(NC(=O)c2c(N)cccc2Sc2ccc([N+](=O)[O-])cc2)c(OC)c1 [Compound 51, 2-amino-N-(2,4-dimethoxyphenyl)-6-(4-nitrophenylthio)benzamide] | 18.1 µg/mL (≈ 42.5 µM) |  | 0.96 |  |  |  |  |
|  |  | COc1ccccc1NC(=O)c1cc(C(F)(F)F)ccc1Sc1ccc([N+](=O)[O-])cc1 [Compound 22, N-(2-methoxyphenyl)-2-((4-nitrophenyl)thio)-5-(trifluoromethyl)benzamide] | > 200 µg/mL |  |  |  |  |  |  |
| 19.4 µg/mL (≈ 44.2 µM) | 19.1 µg/mL (≈ 43.6 µM) | COc1ccccc1NC(=O)c1c(NCCO)cccc1Sc1ccc([N+](=O)[O-])cc1 [Compound 80, 2-((2-hydroxyethyl)amino)-N-(2-methoxyphenyl)-6-((4-nitrophenyl)thio)benzamide] | 116 µg/mL (≈ 265 µM) | 93.5 µg/mL (≈ 213 µM) | 6.08 | 4.81 |  |  |  |
| 36.7 µg/mL | > 200 µg/mL | CS(=O)(=O)Oc1ccccc1NC(=O)c1c(N)cccc1Sc1ccc([N+](=O)[O-])cc1 [Compound 73, 2-(2-amino-6-((4-nitrophenyl)thio)benzamildo)phenyl methanesulfonate] | > 200 µg/mL | 194 µg/mL |  | 5.28 |  |  |  |
| 53.3 µg/mL (≈ 115 µM) | > 200 µg/mL | COc1ccccc1NC(=O)c1c(Sc2ccc([N+](=O)[O-])cc2)cccc1N1CCOCC1 [Compound 63, N-(2-methoxyphenyl)-2-morpholino-6-((4-nitrophenyl)thio)benzamide] | > 200 µg/mL | > 200 µg/mL |  | >3.75 |  |  |  |
| 91.3 µg/mL (≈ 157 µM) | > 200 µg/mL | COc1ccccc1NC(=O)c1c(NS(=O)(=O)c2ccc(C)cc2)cccc1S(=O)(=O)c1ccc([N+](=O)[O-])cc1 [Compound 60, N-(2-methoxyphenyl)-2-(4-methylphenyls-ulfonamido)-6-((4-nitrophenyl)sulfonyl)benzamide] | > 200 µg/mL | > 200 µg/mL |  | >2.19 |  |  |  |
| 7.26 µg/mL (≈ 19.2 µM) | > 200 µg/mL | COc1ccccc1NC(=O)c1c(N)cccc1Sc1cc(C)cc(C)c1 [Compound 74, 2-amino-6-((3,5-dimethylphenyl)thio)-N-(2-methoxyphenyl)benzamide] | > 200 µg/mL | 68.6 µg/mL (≈ 181 µM) |  | 9.45 |  |  |  |
| 14.1 µg/mL (≈ 25.6 µM) | 16.8 µg/mL (≈ 30.6 µM) | COc1ccccc1NC(=O)c1c(NS(=O)(=O)c2ccc(C)cc2)cccc1Sc1ccc([N+](=O)[O-])cc1 [Compound 57, N-(2-methoxyphenyl)-2-(4-methylphenylsulfonamido)-6-((4-nitrophenyl)thio)benzamide] | > 200 µg/mL | 37.2 µg/mL (≈ 67.8 µM) | >11.90 | 2.65 |  |  |  |
|  |  | COc1ccccc1NC(=O)c1c(N)cccc1Sc1ccc(C(=O)O)cc1 [Compound 76, 4-((3-amino-2-((2-methoxyphenyl)carbamoyl)phenyl)thio)benzoic acid] | > 200 µg/mL | > 200 µg/mL |  |  |  |  |  |
|  |  | COc1ccccc1NC(=O)c1c(NCCBr)cccc1Sc1ccc([N+](=O)[O-])cc1 [Compound 64, 2-((2-bromoethyl)amino)-N-(2-methoxyp-henyl)-6-((4-nitrophenyl)thio)benzamide] | 17.8 µg/mL (≈ 35.5 µM) | 10.4 µg/mL (≈ 20.7 µM) | 0.85 | 3.28 |  | 3.17 µg/mL (≈ 6.31 µM) | 21 µg/mL (≈ 41.8 µM) |

| SMILES | EC50 (HIV-1IIIB [1]; [5]) | EC50 (HIV-1IIIB [3]; [6]) | CC50 ([2]; H9 cells, read-out: CC50) | CC50 [4] | TI (HIV-1IIIB [3]; H9 cells) | TI (HIV-1IIIB [1]; C8166 cells) | CC50 [2] | EC50 (HIV-1IIIB [1]; Human immunodeficiency virus 1, C8166) | EC50 (HIV-1IIIB [3]; Human immunodeficiency virus 1, H9) |
| --- | --- | --- | --- | --- | --- | --- | --- | --- | --- |
| Nc1ccc(NC(=O)c2c(Sc3ccc([N+](=O)[O-])cc3)cccc2[N+](=O)[O-])cc1 [Compound 55, N-(4-aminophenyl)-2-nitro-6-(4-nitrophenylthio)benzamide] | > 200 µg/mL | > 200 µg/mL | > 200 µg/mL | > 200 µg/mL |  |  |  |  |  |
| Nc1ccccc1NC(=O)c1c(Sc2ccc([N+](=O)[O-])cc2)cccc1[N+](=O)[O-] [Compound 53, N-(2-aminophenyl)-2-nitro-6-(4-nitrophenylthio)benzamide] |  | 43.7 µg/mL (≈ 106 µM) | > 200 µg/mL |  | >4.58 |  |  |  |  |
| COc1ccccc1NC(=O)c1c(Sc2ccc([N+](=O)[O-])cc2)cccc1[N+](=O)[O-] [Compound 52, N-(2-methoxyphenyl)-2-nitro-6-(4-nitrophenylthio)benzamide] |  | > 200 µg/mL | > 200 µg/mL |  |  |  |  |  |  |
| O=C(O)c1cccc(NC(=O)c2c(Sc3ccc([N+](=O)[O-])cc3)cccc2[N+](=O)[O-])c1 [Compound 54, 3-(2-nitro-6-(4-nitrophenylthio)benzamildo)benzoic acid] |  | 83.9 µg/mL (≈ 191 µM) |  |  | 1.02 |  | 85.8 µg/mL (≈ 195 µM) |  |  |
| COc1ccccc1NC(=O)c1cc([N+](=O)[O-])ccc1Sc1ccc([N+](=O)[O-])cc1 [Compound 23, N-(2-methoxyphenyl)-5-nitro-2-(4-nitrophenylthio)benzamide] | > 200 µg/mL | > 200 µg/mL | > 200 µg/mL | > 200 µg/mL |  |  |  |  |  |
| COc1ccccc1NC(=O)c1cc(NC(C)=O)ccc1Sc1ccc([N+](=O)[O-])cc1 [Compound 29, 5-acetamido-N-(2-methoxyphenyl)-2-((4-nitrophenyl)thio)benzamide] | 73.5 µg/mL (≈ 168 µM) | > 200 µg/mL | 74.6 µg/mL (≈ 171 µM) | 110 µg/mL (≈ 251 µM) | <0.37 | 1.49 |  |  |  |
